According to patent publication US20200371122A1, “BIOMARKER FOR SENESCENT CELLS” (Buck Institute for Research on Aging, priority 2017, published 2020):

Key:
IL-6 secretion = experiment: IL-6 ELISA on non-senescent cells treated with prostaglandins; format: cell-based, human; conditions: 10 μM, 10 days
Description: Human fetal lung fibroblasts (IMR-90) were cultured in Dulbecco's modified eagle medium (DMEM) supplemented with 10% FBS and penicillin/streptomycin. LL 29 (AnHa) cells were obtained from the ATCC and growth to confluence using the ATCC protocol, but were subcultured as described for IMR-90 before initiation of all experiments. Quiescence was induced by replacing culture media with media containing 0.2% FBS. MCF-7 and MDA-MB-231 breast cancer cells were cultured in RPMI supplemented with 10% FBS and penicillin/streptomycin. All cells were cultured at 3% O2, and used between 25 and 40 population doublings. All cells were mycoplasma free.
3×10^4 cells in 12-well plates were treated as indicated in the text, and cultured in 0.5-1 ml serum-free DMEM for 24 hr. CM were collected and clarified at 2,000×g for 10 min. Supernatants were transferred to a tube; cells were trypsinized and counted. CM (2.5 μl) were analyzed by bead-based ELISAs (AlphaLISA, Perkin-Elmer) as instructed by the manufacturer and normalized to cell number.

[1] = test system: IMR-90 fibroblasts depleted of p53 by shRNA; experiment: Prostaglandin treatment of p53-depleted (shp53) IMR-90 fibroblasts (Ki67, cleaved caspase 3); format: cell-based, human; conditions: shp53 cells, 3 days
Description: For EdU labeling, cells were cultured with EdU (10 μM) for 24 h, fixed in 4% buffered formalin for 10 min, washed in PBS, and permeabilized in 0.5% Triton X-100 for 30 min. Cells were treated as instructed by the manufacturer Life Technologies Cat #C10337). For immunofluorescence, cells were blocked in 10% normal goat serum for 30 min, washed, and incubated overnight in antibodies to Ki67 (Abcam) or cleaved caspase 3 (Cell Signaling). Cell were then washed, incubated in fluorescent secondary antibodies, and mounted using vectashield mounting medium with DAPI.

IMR-90 fibroblasts = experiment: Induction of senescence in non-senescent cells by prostaglandins or 5-LOX pathway products (EdU, SA-B-gal, p21, immunoblot); format: cell-based, human
Description: RNA was extracted from cells or tissues using commercially available kits (Isolate II—Bioline for cells; Direct-zol—Zymo for tissues) according to the manufacturer's instructions. cDNA synthesis was performed using a High Capacity cDNA Reverse Transcription Kit (Thermo Fisher) according to the manufacturer's instructions. Quantitative PCR was performed on a LightCycler 480 II (Roche) using primers and probes designed for the Universal Probe Library. Primers and probes used for human transcripts were ACTB: 5′-CCAACCGCGAGAAGATGA (SEQ ID NO:1), 5′-TCCATCACGATGCCAGTG (SEQ ID NO:2), Probe #64; TUBA: 5′-cttcgtctccgccatcag (SEQ ID NO:3), 5′-ttgccaatctggacacca (SEQ ID NO:4), Probe #58; ALOX5: 5′-[…] (SEQ ID NO:5), 5′-[…] (SEQ ID NO:6), Probe #64; ALOX5AP: 5′-ggtctgcggggctacttt (SEQ ID NO:7), 5′-[…] (SEQ ID NO:8), Probe #18; ALOX12: 5′-[…] (SEQ ID NO:9), 5′-agccaggtcgtcaggag (SEQ ID NO:10), Probe #32; ALOX15: 5′-[…] (SEQ ID NO:11), 5′-[…] (SEQ ID NO:12), Probe #76; ALOX15B: 5′-[…] (SEQ ID NO:13), 5′-actgggaggcgaagaagg (SEQ ID NO:14), Probe #51; AKR1C1: 5′-catgcctgtcctgggattt (SEQ ID NO:15), 5′-[…] (SEQ ID NO:16), Probe #49; AKR1C2: 5′-ctatgcgcctgcagaggt (SEQ ID NO:17), 5′-[…] (SEQ ID NO:18), Probe #31; AKR1C3: 5′-[…] (SEQ ID NO:19), 5′-[…] (SEQ ID NO:20), Probe #78; CYSLTR2: 5′-[…] (SEQ ID NO:21), 5′-[…] (SEQ ID NO:22), Probe #18; DPEP1: 5′-gacgtcctgaggctggtg (SEQ ID NO:23), 5′-[…] (SEQ ID NO:24), Probe #9 (SEQ ID NO:25), ELOVL2: 5′-[…] (SEQ ID NO:26), 5′-[…] (SEQ ID NO:27), Probe #53; ELOVL4: 5′-catttggcccatggattc (SEQ ID NO:28), 5′-[…] (SEQ ID NO:29), Probe #31; ELOVL5: 5′-cccttccatgcgtccata (SEQ ID NO:30), 5′-[…] (SEQ ID NO:31), Probe #31; EPHX2: 5′-ttctgctggacaccctgaa (SEQ ID NO:32), 5′-[…] (SEQ ID NO:33), Probe #45; GPX4: 5′-ttcccgtgtaaccagttcg (SEQ ID NO:34), 5′-[…] (SEQ ID NO:35), Probe #36; LTA4H: 5′-ctgctctcacggtccagtc (SEQ ID NO:36), 5′-[…] (SEQ ID NO:37), Probe #64; LTBR2: 5′-[…] (SEQ ID NO:38), 5′-[…] (SEQ ID NO:39), Probe #33; LTC4S: 5′-[…] (SEQ ID NO:40), 5′-[…] (SEQ ID NO:41), Probe #18; PTGDS: 5′-[…] (SEQ ID NO:42), 5′-[…] (SEQ ID NO:43), Probe #36; PTGES: 5′-agagatgcctgcccacag (SEQ ID NO:44), 5′-tggccaccacgtacatctt (SEQ ID NO:45), Probe #4; PTGES2: 5′-[…] (SEQ ID NO:46), 5′-[…] (SEQ ID NO:47), Probe #49; PTGES3 (SEQ ID NO:48), 5′-[…] (SEQ ID NO:49), 5′-[…] (SEQ ID NO:50), Probe #48; PTGIS: 5′-[…] (SEQ ID NO:51), 5′-[…] (SEQ ID NO:52), Probe #45; PTGR1: 5′-atgatggggcagcaagtg (SEQ ID NO:53), 5′-cccatcagaaatggagtgc (SEQ ID NO:54), Probe #64; PTGS1: 5′-[…] (SEQ ID NO:55), 5′-gtggtggtccatgttcctg (SEQ ID NO:56), Probe #81; PTGS2: 5′-gatccccagggctcaaac (SEQ ID NO:57), 5′-[…] (SEQ ID NO:58), Probe #61; TBXAS1: 5′-[…] (SEQ ID NO:59), 5′-tgcctcccgtgtgaatct (SEQ ID NO:60), Probe #73; AREG: 5′-[…] (SEQ ID NO:61), 5′-[…] (SEQ ID NO:62), Probe #73; CCL2: 5′-AGTCTCTGCCGCCCTTCT (SEQ ID NO:63), 5′-GTGACTGGGGCATTGATTG (SEQ ID NO:64), Probe #40; CCL27: 5′-[…] (SEQ ID NO:65), 5′-gctgggtggcagtaggaat (SEQ ID NO:66), Probe #18; CXCL1: 5′-[…] (SEQ ID NO:67), 5′-[…] (SEQ ID NO:68), Probe #52; HGF: 5′-[…] (SEQ ID NO:69), 5′-[…] (SEQ ID NO:70), Probe #49; ILIA: 5′-[…] (SEQ ID NO:71), 5′-[…] (SEQ ID NO:72), Probe #6; IL1B: 5′-[…] (SEQ ID NO:73), 5′-[…] (SEQ ID NO:74), Probe #78; IL6: 5′-[…] (SEQ ID NO:75), 5′-gaaggcagcaggcaacac (SEQ ID NO:76), Probe #45; IL8: 5′-[…] (SEQ ID NO:77), 5′-atggttccttccggtggt (SEQ ID NO:78), Probe #72; IL10: 5′-[…] (SEQ ID NO:79), 5′-[…] (SEQ ID NO:80), Probe #67; MMP3: 5′-[…] (SEQ ID NO:81), 5′-[…] (SEQ ID NO:82), Probe #36; PDGFA: 5′-[…] (SEQ ID NO:83), 5′-[…] (SEQ ID NO:84), Probe #80; VEGF: 5′-[…] (SEQ ID NO:85), 5′-[…] (SEQ ID NO:86), Probe #50; P21WAF1(CDKN1A): 5′-[…]

[2] = test system: bleomycin-induced fibrosis; conditions: administration; Kida 2016, Genovese 2005; cited from earlier work

CCCCC[C@H](O)/C=C/[C@H]1C(=O)C[C@H](O)[C@@H]1C/C=C\CCCC(=O)O [PGD2, prostaglandin D2]
IL-6 secretion (IL-6 secretion): elevated
apoptosis (positivity for cleaved caspase 3) [1]: underwent apoptosis
continued cell division (Ki67 positivity) after loss of p53 [1]: did not allow
levels of LMNB1 and cellular HMGB1 (IMR-90 fibroblasts; 10 μM, 10 days): reduced levels
p21 gene expression (IMR-90 fibroblasts; 10 μM, 10 days): induced
senescence-associated beta-galactosidase (IMR-90 fibroblasts; 10 μM, 10 days): induced
p21 protein accumulation (IMR-90 fibroblasts; 10 μM, 10 days, immunoblot): induced
p53 stabilization (IMR-90 fibroblasts; 10 μM, 10 days, immunoblot): stabilized
p53 phosphorylation or acetylation (IMR-90 fibroblasts; 10 μM, 10 days, western blot): without increasing
expression of MMP3 and secretion of IL-6 on removal of the prostaglandin (IMR-90 fibroblasts; release after 7 days at 10 μM): reduced
bleomycin-induced fibrosis [2]: attenuate
